The values that follow are results of earlier work, collected in patent US20180125772A1, “Oral Care Compositions” (Colgate-Palmolive Company, priority 2016, published 2018).

The conditions of this data set: aqueous solution, pH of no net charge.

As for `NCCCC[C@H](N)C(=O)O` [lysine], the isoelectric point is 9.7 pH.
